Measurements: the NIST ThermoML archive (doi:10.1021/je100760v)

Test: osmotic coefficient (dimensionless); mn = molality of the nth substance listed, in mol/kg
Conditions: Liquid, isopiestic method

O.O=C([O-])C(=O)[O-].[K+].[K+] [potassium oxalate monohydrate] + O
Conditions	osmotic coefficient
298.15 K, m1 = 0.2731	0.764
298.15 K, m1 = 0.3247	0.747
298.15 K, m1 = 0.3721	0.742
298.15 K, m1 = 0.4551	0.736
298.15 K, m1 = 0.4898	0.737
298.15 K, m1 = 0.5836	0.735
298.15 K, m1 = 0.7175	0.741
298.15 K, m1 = 0.8532	0.747
298.15 K, m1 = 0.879	0.746
298.15 K, m1 = 1.163	0.76
298.15 K, m1 = 1.224	0.76
298.15 K, m1 = 1.403	0.77
298.15 K, m1 = 1.446	0.771
298.15 K, m1 = 1.553	0.775
298.15 K, m1 = 1.631	0.777
298.15 K, m1 = 1.763	0.782
298.15 K, m1 = 1.86	0.789
298.15 K, m1 = 1.865	0.787
298.15 K, m1 = 1.961	0.791
298.15 K, m1 = 2.166	0.801
308.15 K, m1 = 0.197	0.768
308.15 K, m1 = 0.2519	0.745
308.15 K, m1 = 0.2974	0.737
308.15 K, m1 = 0.3637	0.734
308.15 K, m1 = 0.4596	0.726
308.15 K, m1 = 0.5269	0.72
308.15 K, m1 = 0.5465	0.719
308.15 K, m1 = 0.5956	0.719
308.15 K, m1 = 0.6873	0.722
308.15 K, m1 = 0.7481	0.721
308.15 K, m1 = 0.8067	0.719
308.15 K, m1 = 0.8889	0.721
308.15 K, m1 = 0.9189	0.724
308.15 K, m1 = 1.088	0.73
308.15 K, m1 = 1.269	0.739
308.15 K, m1 = 1.541	0.751
308.15 K, m1 = 1.754	0.768
308.15 K, m1 = 1.933	0.777
308.15 K, m1 = 1.991	0.782
308.15 K, m1 = 2.108	0.792
308.15 K, m1 = 2.305	0.804
318.15 K, m1 = 0.2751	0.729
318.15 K, m1 = 0.3201	0.725
318.15 K, m1 = 0.3228	0.721
318.15 K, m1 = 0.4383	0.709
318.15 K, m1 = 0.4892	0.709
318.15 K, m1 = 0.596	0.705
318.15 K, m1 = 0.7938	0.704
318.15 K, m1 = 0.8879	0.707
318.15 K, m1 = 1.088	0.715
318.15 K, m1 = 1.261	0.72
318.15 K, m1 = 1.296	0.725
318.15 K, m1 = 1.643	0.749
318.15 K, m1 = 1.671	0.748
318.15 K, m1 = 1.72	0.754
318.15 K, m1 = 1.738	0.752
318.15 K, m1 = 1.869	0.763
318.15 K, m1 = 2.217	0.78
